SMILES strings stand for the structures. In brackets after ≈: the same amount, converted by molar mass. Activity calls are given as the source filed them. No cut-off for these calls is given here. Some results are limits rather than exact numbers.

The text below walks through data of ChEMBL document CHEMBL6083213, “Discovery of benzimidazole-2-amide BNZ-111 as new tubulin inhibitor” (Bioorg Med Chem Lett, 2024).

In data set [1] the test system is A549. Kind of data set: Anticancer activity against human A549 cells assessed as inhibition of cell growth at 1 uM incubated for 72 hrs by MTT assay relative to control. The data set is classed as functional.
The test system of data set [2] is NCI-H1299. Kind of data set: Anticancer activity against human NCI-H1299 cells assessed as inhibition of cell growth at 1 uM incubated for 72 hrs by MTT assay relative to control. The data set is classed as functional. In general terms: Formazan colour is commonly taken as a measure of viable cells.
The test system of data set [3] is NCI-H460. Description: Anticancer activity against human NCI-H460 cells assessed as inhibition of cell growth at 1 uM incubated for 72 hrs by MTT assay relative to control. The format is functional.
Data set [4] can be described thus: AUC in Sprague-Dawley rat at 10 mg/kg, po. The data set is classed as ADME, organism-based. Particulars: in vivo.
Data set [5] in a line: Oral bioavailability in Sprague-Dawley rat at 10 mg/kg. The format is ADME, organism-based. Particulars: in vivo.
Data set [6] is described as follows: Half life in Sprague-Dawley rat at 2 mg/kg, iv. The data set is classed as ADME, organism-based. Particulars: in vivo.
Data set [7] is described as follows: Clearance in Sprague-Dawley rat at 2 mg/kg, iv. The data set is classed as ADME, organism-based. Particulars: in vivo.
Data set [8] is described as follows: Cmax in Sprague-Dawley rat at 10 mg/kg, po. The format is ADME, organism-based. Particulars: in vivo.
The nature of data set [9]: Volume of distribution at steady state in Sprague-Dawley rat at 2 mg/kg, iv. The format is ADME, organism-based. As to conditions: in vivo, read-out: Vdss.
A short description of data set [10]: Microsomal stability in mouse liver microsomes assessed as parent compound remaining measured after 30 mins. The format is ADME, Microsome. Particulars: read-out: Stability. A general note: Liver microsomes are vesicles of endoplasmic reticulum, rich in cytochrome P450 enzymes.
The test system of data set [11] is L929. Description: Cytotoxicity against mouse L929 cells incubated for 24 hrs. The data set is classed as toxicity, cell-based. As to conditions: l929, 24 h.
A short description of data set [12]: Stability in rat plasma assessed as parent compound remaining after 4 hrs. The data set is classed as ADME, cell-free. As to conditions: read-out: Stability.
Data set [13] relates to HeyA8-MDR. Description: Antitumor activity against human HeyA8-MDR cells xenografted in mouse assessed as tumor growth inhibition. The format is functional, cell-based. In general terms: Xenograft models place foreign cells or tissue in a host animal.
Data set [14] in a line: Plasma protein binding in human. The format is ADME, cell-free. As to conditions: read-out: PPB (converted).
The nature of data set [15]: Solubility of compound in 1 % DMSO-PBS buffer. The format is physicochemical.
Data set [16] can be described thus: Plasma protein binding in mouse. As to conditions: read-out: PPB (converted). The data set is classed as ADME, cell-free.
Data set [17] in a line: Stability in human plasma assessed as parent compound remaining after 4 hrs. The data set is classed as ADME, cell-free. Particulars: read-out: Stability.
For data set [18], the system named is A2780. Kind of data set: Anticancer activity against human A2780 cells incubated for 24. The data set is classed as functional, cell-based.
Data set [19] has as its system CHO-K1. Kind of data set: Cytotoxicity against CHO-K1 cells incubated for 24 hrs. The data set is classed as toxicity, cell-based, Cricetulus griseus. As to conditions: chinese hamster, cho-k1, 24 h.
Data set [20] is described as follows: Cytotoxicity against human SKOV3.ip1 cells incubated for 24 hrs. The data set is classed as toxicity, cell-based. Particulars: skov3.ip1, 24 h.
For data set [21], the system named is HEY A8. Description: Anticancer activity against human HEY A8 cells incubated for 24. The data set is classed as functional, cell-based.
Data set [22] can be described thus: Cytotoxicity against human SKOV3/TR cells incubated for 24 hrs. The data set is classed as toxicity, cell-based.
For data set [23], the system named is HFL1. Description: Cytotoxicity against human HFL1 cells incubated for 24 hrs. The data set is classed as toxicity, cell-based. As to conditions: hfl1, 24 h.
In data set [24] the test system is NCI-H460. Kind of data set: Anticancer activity against human NCI-H460 cells incubated for 24. The data set is classed as functional, cell-based.
Data set [25] is described as follows: Cytotoxicity against human A2780/CP20 cells incubated for 24 hrs. The data set is classed as toxicity, cell-based. As to conditions: a2780/cp20, 24 h.
Data set [26] is described as follows: Cytotoxicity against human HeyA8-MDR cells incubated for 24 hrs. The format is toxicity, cell-based.
Data set [27] concerns the target hERG (KCNH2) (Homo sapiens, UniProt Q12809). Description: Inhibition of hERG at 10 uM relative to control. The data set is classed as toxicity.
Data set [28] concerns Vero. Description: Cytotoxicity against african green monkey Vero cells incubated for 24 hrs. The format is toxicity, cell-based. Particulars: chlorocebus sabaeus.
The subject of data set [29] is A549. Kind of data set: Anticancer activity against human A549 cells incubated for 24. The format is functional, cell-based.
Data set [30] in a line: Stability in mouse plasma assessed as parent compound remaining after 4 hrs. The format is ADME, cell-free. As to conditions: read-out: Stability.
Data set [31] is described as follows: Microsomal stability in human liver microsomes assessed as parent compound remaining measured after 30 mins. The format is ADME, Microsome. As to conditions: read-out: Stability.
Data set [32] concerns NIH3T3. Kind of data set: Cytotoxicity against mouse NIH3T3 cells incubated for 24 hrs. The format is toxicity, cell-based. Particulars: nih3t3, 24 h.
Data set [33] relates to NCI-H1299. Description: Anticancer activity against human NCI-H1299 cells incubated for 24. The data set is classed as functional, cell-based.
Data set [34] can be described thus: Microsomal stability in rat liver microsomes assessed as parent compound remaining measured after 30 mins. The format is ADME, Microsome. As to conditions: read-out: Stability.

Chain of hERG (KCNH2) (Q12809 whole entry): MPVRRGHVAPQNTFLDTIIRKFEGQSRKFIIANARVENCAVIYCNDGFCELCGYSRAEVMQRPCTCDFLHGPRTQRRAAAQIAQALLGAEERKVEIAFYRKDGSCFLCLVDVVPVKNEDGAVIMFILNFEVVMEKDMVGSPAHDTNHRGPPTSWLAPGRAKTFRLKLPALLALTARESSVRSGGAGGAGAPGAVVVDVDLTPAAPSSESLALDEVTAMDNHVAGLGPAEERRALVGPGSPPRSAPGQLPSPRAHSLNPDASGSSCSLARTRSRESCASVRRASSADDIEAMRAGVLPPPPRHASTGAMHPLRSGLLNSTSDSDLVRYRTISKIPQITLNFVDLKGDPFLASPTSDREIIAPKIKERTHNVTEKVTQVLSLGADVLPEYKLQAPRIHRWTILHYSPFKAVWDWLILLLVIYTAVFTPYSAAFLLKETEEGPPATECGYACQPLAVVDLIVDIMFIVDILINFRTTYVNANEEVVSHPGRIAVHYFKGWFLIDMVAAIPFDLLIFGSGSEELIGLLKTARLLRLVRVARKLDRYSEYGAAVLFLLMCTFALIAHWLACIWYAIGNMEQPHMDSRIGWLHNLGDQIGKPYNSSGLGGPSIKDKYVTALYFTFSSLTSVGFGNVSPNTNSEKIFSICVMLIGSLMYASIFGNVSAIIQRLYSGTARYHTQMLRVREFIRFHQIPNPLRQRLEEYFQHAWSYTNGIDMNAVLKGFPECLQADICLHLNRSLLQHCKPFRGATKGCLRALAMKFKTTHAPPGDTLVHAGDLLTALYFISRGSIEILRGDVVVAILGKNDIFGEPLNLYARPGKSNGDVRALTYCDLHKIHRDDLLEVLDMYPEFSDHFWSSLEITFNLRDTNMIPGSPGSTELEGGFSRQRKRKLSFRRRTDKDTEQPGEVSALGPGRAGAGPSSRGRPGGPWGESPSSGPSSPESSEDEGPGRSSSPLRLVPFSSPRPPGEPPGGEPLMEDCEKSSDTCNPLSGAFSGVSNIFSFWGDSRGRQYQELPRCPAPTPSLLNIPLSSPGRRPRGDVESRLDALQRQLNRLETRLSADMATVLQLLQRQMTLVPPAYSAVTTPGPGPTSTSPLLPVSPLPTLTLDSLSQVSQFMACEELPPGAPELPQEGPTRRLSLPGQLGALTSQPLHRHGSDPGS

For orientation: inhibition means the change of the read-out against control, counted positive when it falls. In the case of `COC(=O)Nc1nc2ccc(OCCCF)cc2[nH]1`, the inhibition at 1 µM in data set [1] amounted to 28%; in data set [2] it was 25%; in [3] it was 20%.

For `COC(=O)Nc1nc2ccc(OCCC(F)(F)F)cc2[nH]1`, the inhibition at 1 µM in data set [1] stood at 18%; in data set [2] it was 24%; in data set [3], 17%.

As for `CCCOc1ccc2c(c1)nc(NC(=O)OC)n2C`, the inhibition at 1 µM is 23% in data set [1], 31% in data set [2] and 10% in data set [3].

In the case of `CCCOc1ccc2nc(NC(=O)OC)n(C)c2c1`, the inhibition at 1 µM was found to be 10% in data set [1], 19% in data set [2] and 10% in data set [3].

Regarding `CCCOc1cc2[nH]c(NC(=O)CC)nc2cc1C`, the inhibition at 1 µM in data set [1] was 34%; in data set [2], 26%; in data set [3], 40%.

Turning to `CCCOc1cc2[nH]c(NC(=O)CC)nc2cc1Cl`, the inhibition at 1 µM in data set [1] is 58%; in [2], 55%; in [3], 60%.

On to `CCCOc1ccc2nc(N)[nH]c2c1`, for which the inhibition at 1 µM came out at 8% in data set [1], 24% in [2] and 13% in data set [3].

In the case of `CC(=O)O[C@H]1C(=O)[C@@]2(C)[C@H]([C@H](OC(=O)c3ccccc3)[C@]3(O)C[C@H](OC(=O)[C@H](O)[C@@H](NC(=O)c4ccccc4)c4ccccc4)C(C)=C1C3(C)C)[C@]1(OC(C)=O)CO[C@@H]1C[C@@H]2O` [PACLITAXEL], the values for the inhibition at 1 µM in data set [1], in [2] and in data set [3] were 74%, 73% and 63%, respectively.

What is called AUC is concentration integrated over time. One may read the bioavailability as the share of a dose that reaches the circulation, judged against a reference dose that is usually intravenous. In general, half-life refers to the time in which the quantity being followed falls by half. In general, clearance refers to the volume of plasma or blood freed of the substance per unit of time. For orientation: Cmax means the maximum level reached in the sampled fluid or tissue. `CCCOc1ccc2nc(NC(=O)NC)[nH]c2c1`: the inhibition at 1 µM in data set [1] was found to be 59%; in data set [2] it was 65%; in data set [3], 54%. In data set [4], the AUC is 590 ng·h/mL. The compound also came in with a bioavailability in [5] of 44%. The half-life in data set [6] was 0.25 h. The clearance in data set [7] is 132 mL/min/kg. The compound also registered a Cmax in [8] of 580 ng/mL. Moreover, in data set [9], the Vd was 2.8 L/kg.

Broadly, the solubility is the concentration that dissolves in the medium under given conditions. As to `CCCOc1cc2[nH]c(NC(=O)CC)nc2cc1F`, the remaining at 0.5 h in [10] was 2.6%; in [31], 29%; in data set [34], 20%. For the same compound, the Activity entry in [11], in [19], in data set [20], in data set [22], in data set [23] and in data set [25] was “Non-toxic” each time. Besides, the Activity entry in data set [26], in [28] and in data set [32] was “Non-toxic” each time. For the same compound, the inhibition at 1 µM was 64% in data set [1], 62% in [2] and 63% in data set [3]. The remaining at 4 h in data set [12] was 95%; in data set [17], over 99%; in [30], 95%. In addition, the TGI result in data set [13] was “Active”. The fraction unbound in [14] was 0.17; in data set [16], 0.15. For the same compound, in [15], the solubility amounted to 53 µM (≈ 14.1 µg/mL). The result in data set [18], in data set [21], in data set [24], in data set [29] and in [33] was Active. The compound also yielded an area under the curve (AUC) in data set [4] of 2140 ng·h/mL. The same compound gave a bioavailability in [5] of 50%. The same compound had a half-life in [6] of 0.3 h. The compound also gave an inhibition at 10 µM in data set [27] of 29%. Also, the clearance in data set [7] is 38.5 mL/min/kg. In data set [8], this compound came in with a Cmax of 2760 ng/mL. In addition, in [9], the Vd came to 0.6 L/kg.

For the compound `CCCCOc1ccc2nc(NC(=O)OC)[nH]c2c1`, the inhibition at 1 µM in [1] stood at 30%; in data set [2], 39%; in data set [3], 31%.

Turning to `CCOc1ccc2nc(NC(=O)OC)[nH]c2c1`, the inhibition at 1 µM in [1] is 25%; in data set [2] it was 23%; in data set [3], 27%.

As for `CCCOc1ccc2nc(N(C)C(=O)OC)[nH]c2c1`, the inhibition at 1 µM amounted to 0% in [1], 22% in data set [2] and 8% in data set [3].

With `COC(=O)Nc1nc2cc(Sc3ccccc3)ccc2[nH]1` [FENBENDAZOLE], the inhibition at 1 µM in [1] was found to be 44%; in [2] it was 59%; in data set [3], 43%.

`COC(=O)Nc1nc2cc(C(=O)c3ccccc3)ccc2[nH]1` [MEBENDAZOLE]: the inhibition at 1 µM came out at 48% in data set [1], 52% in [2] and 46% in data set [3].

Consider `CCCOc1cc2[nH]c(NC(=O)CC)nc2cc1OC`, for which the inhibition at 1 µM is 10% in [1], 11% in data set [2] and 14% in data set [3].

In the case of `CCCOc1ccc2nc(NS(=O)(=O)CC)[nH]c2c1`, the inhibition at 1 µM amounted to 4% in data set [1], 9% in [2] and 6% in data set [3].

On to `CCCCc1ccc2[nH]c(NC(=O)OC)nc2c1` [PARBENDAZOLE], for which the values for the inhibition at 1 µM in data set [1], in data set [2] and in [3] were 47%, 37% and 27%, respectively.

Turning to `CCCOc1ccc2nc(NC(=O)CC)[nH]c2c1`, the inhibition at 1 µM turned out to be 58% in [1], 64% in data set [2] and 46% in data set [3]. The AUC in data set [4] is 930 ng·h/mL. This compound also had a bioavailability in data set [5] of 25%. In [6], this compound showed a half-life of 18.6 h. Also, the clearance in data set [7] was 45.5 mL/min/kg. This compound returned a Cmax in [8] of 1560 ng/mL. The Vd in data set [9] was found to be 6.4 L/kg.

In the case of `CCCOc1ccc2nc(NC(=O)OC)[nH]c2c1` [OXIBENDAZOLE], the inhibition at 1 µM in data set [1] amounted to 58%; in [2], 65%; in data set [3] it was 47%. In data set [4], this compound yielded an AUC of 10 ng·h/mL. In addition, the bioavailability in data set [5] is 2.6%. In addition, the half-life in [6] was 27 h. The compound further gave a clearance in data set [7] of 350 mL/min/kg. This compound showed a Cmax in data set [8] of 10 ng/mL. The Vd in data set [9] worked out at 413 L/kg.
